In the assay the test system is 1:1 (NHF:H35) microtissues. Conditions: cultured four hours, then overnight at 37° C. in 5 mM EDTA in PBS. The method, then:
To determine if extracellular calcium disintegrated the microtissues, 1:1 (NHF: H35) microtissues were cultured for 4 hours. Culture media was removed, and microtissues were washed with PBS, and then incubated overnight at 37° C. in 5 mM EDTA in PBS. Control samples were kept in regular culture media or PBS.
To examine if enhanced power was transduced through cell-cell interactions 1:1 (NHF:H35) were cultured for four hours and then incubated in EDTA to destabilize the calcium dependent cell-cell adhesions. Control samples were kept in regular culture media or PBS.

`O=C(O)CN(CCN(CC(=O)O)CC(=O)O)CC(=O)O` [EDTA]: the microtissue integrity result is reported as “disintegrated into monodispersed cells”.

The values above are taken from patent US9243278B2, “Mechanotransduction by the synergistic action of heterotypic cell interactions” (Brown University, priority 2011, dated 2016).
